Reference: PubChem BioAssay (NCI)
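The concentration for 50% growth inhibition is given as GI50. TGI marks complete inhibition of growth.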

Experiments:
Test in all cases: growth of human tumour cells (NCI), 384-well format
[1] = tested on: SK-OV-3 ovarian
[2] = tested on: MDA-MB-435 melanoma
[3] = tested on: RXF 393 renal
[4] = tested on: MDA-MB-231 breast
[5] = tested on: EKVX NSCLC
[6] = tested on: LOX IMVI melanoma
[7] = tested on: IGROV1 ovarian
[8] = tested on: OVCAR-5 ovarian
[9] = tested on: PC-3 prostate
[10] = tested on: T-47D breast
[11] = tested on: MALME-3M melanoma
[12] = tested on: SF-295 CNS
[13] = tested on: CCRF-CEM leukemia
[14] = tested on: MCF7 breast
[15] = tested on: SK-MEL-2 melanoma
[16] = tested on: HT29 colon
[17] = tested on: BT-549 breast
[18] = tested on: HOP-62 NSCLC
[19] = tested on: A549 NSCLC
[20] = tested on: SR leukemia
[21] = tested on: NCI-H322M lung
[22] = tested on: SF-268 CNS
[23] = tested on: U251 glioblastoma
[24] = tested on: UACC-257 melanoma
[25] = tested on: A498 renal
[26] = tested on: COLO 205 colon
[27] = tested on: SN12C renal
[28] = tested on: SNB-75 CNS
[29] = tested on: RPMI-8226 leukemia
[30] = tested on: HOP-92 NSCLC
[31] = tested on: MOLT-4 leukemia
[32] = tested on: SW-620 colon
[33] = tested on: MDA-MB-468 breast
[34] = tested on: ACHN renal
[35] = tested on: UACC-62 melanoma
[36] = tested on: HCT-116 colon
[37] = tested on: OVCAR-8 ovarian
[38] = tested on: K-562 leukemia
[39] = tested on: TK-10 renal
[40] = tested on: SNB-19 CNS
[41] = tested on: UO-31 renal
[42] = tested on: OVCAR-3 ovarian
[43] = tested on: CAKI-1 renal
[44] = tested on: SF-539 CNS
[45] = tested on: HS 578T breast
[46] = tested on: HCT-15 colon
[47] = tested on: HL-60(TB) leukemia
[48] = tested on: OVCAR-4 ovarian
[49] = tested on: NCI-H522 lung
[50] = tested on: M14 melanoma
[51] = tested on: SK-MEL-28 melanoma
[52] = tested on: NCI-H460 NSCLC
[53] = tested on: 786-0 renal
[54] = tested on: KM12 colon
[55] = tested on: NCI-H226 lung
[56] = tested on: DU-145 prostate
[57] = tested on: NCI/ADR-RES ovarian
[58] = tested on: NCI-H23 lung
[59] = tested on: SK-MEL-5 melanoma
[60] = tested on: HCC-2998 colon

## CC1(C)CCC(CN2CCN(c3ccc(C(=O)NS(=O)(=O)c4ccc(NCC5CCOCC5)c([N+](=O)[O-])c4)c(Oc4cnc5[nH]ccc5c4)c3)CC2)=C(c2ccc(Cl)cc2)C1
[1]
  GI50: 15.5 µM
  TGI: 21.1 µM
[2]
  GI50: 3.43 µM
  TGI: 16.6 µM
[3]
  GI50: 3.41 µM
  TGI: 5.69 µM
[4]
  GI50: 2.49 µM
  TGI: 6.01 µM
[5]
  GI50: 6.98 µM
  TGI: 14.3 µM
[6]
  GI50: 9.62 µM
[7]
  GI50: 2.81 µM
  TGI: 7.24 µM
[8]
  GI50: 3.53 µM
  TGI: 6.62 µM
[9]
  GI50: 4.61 µM
  TGI: 12.2 µM
[10]
  GI50: 5.12 µM
  TGI: 8.12 µM
[11]
  GI50: 2.81 µM
  TGI: 6.5 µM
[12]
  GI50: 3.98 µM
  TGI: 7.88 µM
[13]
  GI50: 7.94 µM
[14]
  GI50: 4.38 µM
  TGI: 8.24 µM
[15]
  GI50: 1.93 µM
  TGI: 3.43 µM
[16]
  GI50: 5.16 µM
  TGI: 7.3 µM
[17]
  GI50: 3.79 µM
  TGI: 9.18 µM
[18]
  GI50: 6.2 µM
  TGI: 9.88 µM
[19]
  GI50: 4.97 µM
  TGI: 11.2 µM
[20]
  GI50: 1.38 µM
  TGI: 2.68 µM
[21]
  GI50: 4.57 µM
  TGI: 11.5 µM
[22]
  GI50: 3.84 µM
  TGI: 8.19 µM
[23]
  GI50: 5.89 µM
  TGI: 9.82 µM
[24]
  GI50: 5.19 µM
  TGI: 7 µM
[25]
  GI50: 3.64 µM
  TGI: 8.99 µM
[26]
  GI50: 3.81 µM
  TGI: 6.68 µM
[27]
  GI50: 4.52 µM
  TGI: 14.9 µM
[28]
  GI50: 4.58 µM
  TGI: 9.27 µM
[29]
  GI50: 1.75 µM
  TGI: 3.99 µM
[30]
  GI50: 1.83 µM
  TGI: 3.73 µM
[31]
  GI50: 1.26 µM
  TGI: 2.62 µM
[32]
  GI50: 6.09 µM
  TGI: 7.57 µM
[33]
  GI50: 3.67 µM
  TGI: 7.05 µM
[34]
  GI50: 4.22 µM
  TGI: 11.6 µM
[35]
  GI50: 4.95 µM
  TGI: 7.13 µM
[36]
  GI50: 4.46 µM
  TGI: 11.8 µM
[37]
  GI50: 4.44 µM
  TGI: 7.43 µM
[38]
  GI50: 2.13 µM
  TGI: 4.28 µM
[39]
  GI50: 6.84 µM
  TGI: 12.4 µM
[40]
  GI50: 5.63 µM
  TGI: 11 µM
[41]
  GI50: 3.63 µM
  TGI: 8 µM
[42]
  GI50: 4.55 µM
  TGI: 7.36 µM
[43]
  GI50: 5.47 µM
  TGI: 11.7 µM
[44]
  GI50: 3.6 µM
  TGI: 7.94 µM
[45]
  GI50: 3.14 µM
  TGI: 7.93 µM
[46]
  GI50: 5.11 µM
  TGI: 9.19 µM
[47]
  GI50: 0.105 µM
  TGI: 0.802 µM
[48]
  GI50: 2.98 µM
  TGI: 6.29 µM
[49]
  GI50: 14.9 µM
  TGI: 20.2 µM
[50]
  GI50: 3.51 µM
  TGI: 9.14 µM
[51]
  GI50: 4.05 µM
  TGI: 9.58 µM
[52]
  GI50: 4.46 µM
  TGI: 7.85 µM
[53]
  GI50: 3.15 µM
  TGI: 9.12 µM
[54]
  GI50: 5.75 µM
  TGI: 8.84 µM
[55]
  GI50: 7.08 µM
  TGI: 10.6 µM
[56]
  GI50: 5.66 µM
  TGI: 18.5 µM

## Oc1ccc(-c2nc(-c3ccc(F)cc3)c(-c3ccncc3)[nH]2)cc1
[1]
  GI50: 13 µM
  TGI: 32.7 µM
[2]
  GI50: 10.4 µM
  TGI: 44 µM
[3]
  GI50: 15 µM
  TGI: 31.5 µM
[4]
  GI50: 20.7 µM
  TGI: > 60 µM
[5]
  GI50: 14.7 µM
  TGI: 33.2 µM
[6]
  GI50: 17.6 µM
  TGI: 31.8 µM
[7]
  GI50: 1.62 µM
  TGI: 20.9 µM
[8]
  GI50: 23.6 µM
  TGI: 47 µM
[9]
  GI50: 18.7 µM
  TGI: > 57 µM
[10]
  GI50: 12.5 µM
  TGI: 27.1 µM
[57]
  GI50: 20.2 µM
  TGI: 46.6 µM
[11]
  GI50: 3.34 µM
  TGI: 9.1 µM
[58]
  GI50: 29.2 µM
  TGI: 85.4 µM
[12]
  GI50: 17.5 µM
  TGI: 33.1 µM
[13]
  GI50: 10.1 µM
  TGI: 21.8 µM
[14]
  GI50: 18.8 µM
  TGI: > 100 µM
[15]
  GI50: 16.3 µM
  TGI: 30 µM
[16]
  GI50: 5.85 µM
  TGI: 20.9 µM
[17]
  GI50: 19.2 µM
  TGI: > 57.2 µM
[18]
  GI50: 19 µM
  TGI: 42.9 µM
[19]
  GI50: 19.2 µM
  TGI: > 52.1 µM
[59]
  GI50: 10.6 µM
  TGI: 22.5 µM
[20]
  GI50: 10.3 µM
  TGI: 22.1 µM
[21]
  GI50: 21.3 µM
  TGI: 52.5 µM
[60]
  GI50: 23.9 µM
  TGI: 40.8 µM
[22]
  GI50: 18.3 µM
  TGI: 46.2 µM
[23]
  GI50: 18.6 µM
  TGI: 48.3 µM
[24]
  GI50: 21.9 µM
  TGI: > 54 µM
[25]
  GI50: 16.4 µM
  TGI: 46.2 µM
[26]
  GI50: 8.47 µM
  TGI: 22.1 µM
[27]
  GI50: 44.3 µM
  TGI: > 100 µM
[28]
  GI50: 32.9 µM
  TGI: > 85.4 µM
[29]
  GI50: 5.38 µM
  TGI: 13.1 µM
[30]
  GI50: 15.9 µM
  TGI: 60.4 µM
[31]
  GI50: 11.9 µM
  TGI: 24.3 µM
[32]
  GI50: 23.5 µM
  TGI: 38.4 µM
[33]
  GI50: 4.59 µM
  TGI: 19.3 µM
[34]
  GI50: 12.2 µM
  TGI: 31.5 µM
[35]
  GI50: 3.62 µM
  TGI: 16.8 µM
[36]
  GI50: 20 µM
  TGI: > 53.3 µM
[37]
  GI50: 22.7 µM
  TGI: > 100 µM
[38]
  GI50: 10.5 µM
  TGI: 24.2 µM
[39]
  GI50: 18.8 µM
  TGI: 57.3 µM
[40]
  GI50: 41.7 µM
  TGI: > 100 µM
[42]
  GI50: 14.9 µM
  TGI: 29 µM
[43]
  GI50: 7.98 µM
  TGI: > 48.4 µM
[44]
  GI50: 17.6 µM
  TGI: 35.8 µM
[45]
  GI50: 15.7 µM
  TGI: 31.3 µM
[46]
  GI50: 15.4 µM
  TGI: 32.9 µM
[47]
  GI50: 14.6 µM
  TGI: 27.7 µM
[48]
  GI50: 47.5 µM
  TGI: > 100 µM
[49]
  GI50: 7.46 µM
  TGI: 22.2 µM
[50]
  GI50: 5.7 µM
  TGI: 21 µM
[51]
  GI50: 7.27 µM
  TGI: 22.4 µM
[52]
  GI50: 15.3 µM
  TGI: 28.9 µM
[53]
  GI50: 12.9 µM
  TGI: 26.6 µM
[54]
  GI50: 20.2 µM
  TGI: 37.2 µM
[55]
  GI50: 18.7 µM
  TGI: 39.4 µM
[56]
  GI50: 14.8 µM
  TGI: 31.2 µM
